Test results taken from patent US20050054006A1, “Combinatorial fluorescent library based on the styryl scaffold” (New York University, priority 2003, published 2005).
Where “and” joins values, the source holds several entries; their conditions need not be identical. Equal values may be shown once. Entries after “also recorded” stand apart in the source; their conditions may differ.

How the values were obtained:
[1] = Fluorescence excitation/emission of the styryl dye library compounds; type: physicochemical
[2] = system: UACC-62 human melanoma cells; test: Organelle localization in live cells by fluorescence microscopy; conditions: live UACC-62 cells, fluorescence microscope λex=405, 490, 570 nm; λem>510 nm

Compound | EM(nm) ([1]; EX/EM peak no. 1) | EX(nm) ([1]; EX/EM peak no. 1) | LOCALIZATION [2] | EM(nm) ([1]; EX/EM peak no. 2) | EX(nm) ([1]; EX/EM peak no. 2)
COc1ccc2c(ccc(C=Cc3c(F)c(F)c(F)c(F)c3F)[n+]2C)c1.[I-] [Compound I31] | 610 nm | 380 nm | MITO and NUCLEI and CYTO | – | –
C[n+]1c(C=Cc2ccc3ccccc3c2)ccc2ccccc21.[I-] [Compound H33] | 620 nm | 340-460 nm | MITO and NUCLEI and CYTO and VESICLE | – | –
COc1ccc2c(ccc(C=Cc3ccc(N(C)C)cc3)[n+]2C)c1.[I-] [Compound I19] | 630 nm | – | NUCLEOLI | – | –
COc1ccc2ccccc2c1C=Cc1cccc[n+]1C.[I-] [Compound C23] | 530 nm | 420 nm | CYTO | – | –
COc1ccc2c(ccc(C=Cc3ccc(O)cc3)[n+]2C)c1.[I-] [Compound I16] | – | 360 nm | VESICLE; also recorded: NUCLEOLI | 610 | 360-460 nm
Cc1ccnc(-c2cc(C=Cc3ccc(OCc4ccccc4)c(OCc4ccccc4)c3)cc[n+]2C)c1.[I-] [Compound J12] | 560 nm | 350-470 nm | VESICLE | – | –
COc1ccc2c(ccc(C=Cc3ccc(N(C)C)c4ccccc34)[n+]2C)c1.[I-] [Compound I27] | 630-660 nm | 420 nm | NUCLEOLI | – | –
C[n+]1c(C=CCc2ccccc2)ccc2ccccc21.[I-] [Compound H1] | 640 nm | – | MITO | – | –
Cc1ccnc(-c2cc(C=Cc3ccc4c(c3)OCO4)cc[n+]2C)c1.[I-] [Compound J39] | 560 nm | 350-450 nm | MITO | – | –
COc1ccc(C=Cc2ccc3cc(OC)ccc3[n+]2C)cc1.[I-] [Compound I10] | 520 nm | – | CYTO and VESICLE | 640 | –
Cc1ccc[n+](C)c1C=CC=Cc1ccc(N(C)C)cc1.[I-] [Compound D37] | 650 nm | 470(broad) nm | MITO | – | –
COc1ccccc1C=Cc1cc[n+](C)c(-c2cc(C)ccn2)c1.[I-] [Compound J9] | 520 nm | 420(broad) nm | MITO | – | –
C[n+]1ccc(C=Cc2ccc(OCc3ccccc3)c(OCc3ccccc3)c2)cc1.[I-] [Compound A12] | 540 nm | 330-460 nm | MITO | – | –
C[n+]1ccc(C=Cc2cccc3ccccc23)c2ccccc21.[I-] [Compound G32] | 560 nm | 430 nm | MITO | – | –
CN(C)c1ccc(C=Cc2cc[n+](C)c3ccccc23)c2ccccc12.[I-] [Compound G27] | 720 nm | 450-550(broad) nm | MITO | – | –
C[n+]1c(C=Cc2ccc3c(c2)OCO3)ccc2ccccc21.[I-] [Compound H39] | 670 nm and 560 nm | 530 nm and 430(broad) nm | CYTO | – | –
COc1ccc(C=Cc2cc[n+](C)cc2)c2ccccc12.[I-] [Compound A14] | 550 nm | 430(broad) nm | MITO | – | –
COc1ccc2c(ccc(C=Cc3ccc4c(c3)Cc3ccccc3-4)[n+]2C)c1.[I-] [Compound I28] | 660 nm | 450(broad) nm | NUCLEOLI | – | –
COc1ccc(C=Cc2cccc(C)[n+]2C)cc1.[I-] [Compound L10] | 510 nm | 420 nm | MITO | – | –
CN(C)c1ccc(/C=C/c2ccc3ccccc3[n+]2C)cc1.[I-] [Compound H19] | 640 nm | 490(broad) nm | NUCLEOLI | – | –
CCc1ccc(C=Cc2c(OC)ccc3ccccc23)[n+](C)c1.[I-] [Compound E23] | 510 nm | 420(broad) nm | CYTO | – | –
Cc1ccnc(-c2cc(/C=C/c3cccc4ccccc34)cc[n+]2C)c1.[I-] [Compound J32] | 530 nm | 350-450 nm | MITO | – | –
COc1ccc2ccccc2c1/C=C/c1c(C)ccc[n+]1C.[I-] [Compound D23] | 510 nm | 420(broad) nm | CYTO | – | –
COc1ccc2c(ccc(C=Cc3cccc([N+](=O)[O-])c3)[n+]2C)c1.[I-] [Compound I21] | 620 nm | 390 nm | VESICLE; also recorded: NUCLEOLI | – | –
Cc1cccc(/C=C/c2ccc(N(C)C)cc2)[n+]1C.[I-] [Compound L19] | 580 nm | 450 nm | MITO | – | –
COc1ccc2ccccc2c1C=Cc1cccc(C)[n+]1C.[I-] [Compound L23] | 570 nm | 420 nm | CYTO | – | –
CCc1ccc(C=Cc2ccc(N(C)C)cc2)[n+](C)c1.[I-] [Compound E19] | 580 nm | 460(broad) nm | MITO | – | –
COc1ccc2c(ccc(C=CCc3ccccc3)[n+]2C)c1.[I-] [Compound I1] | 630 nm | 460 nm | MITO | – | –

Compound | EM(nm) ([1]; EX/EM peak no. 1) | EX(nm) ([1]; EX/EM peak no. 1) | LOCALIZATION [2] | EM(nm) ([1]; EX/EM peak no. 2) | EX(nm) ([1]; EX/EM peak no. 2)
CC(=O)Nc1ccc(C=Cc2ccc3ccccc3[n+]2C)cc1.[I-] [Compound H18] | 650 nm | 430 nm | MITO and NUCLEOLI | – | –
COc1cc(OC)c(OC)cc1C=Cc1cc[n+](C)c(-c2cc(C)ccn2)c1.[I-] [Compound J38] | 590 nm | 380-500 nm | MITO | – | –
Cc1ccnc(-c2cc(C=Cc3c(F)c(F)c(F)c(F)c3F)cc[n+]2C)c1.[I-] [Compound J31] | 520 nm | – | MITO | – | –
C[n+]1ccc(C=CCc2ccccc2)cc1.[I-] [Compound A1] | 490 nm | 390 nm | CYTO | – | –
Cc1ccnc(-c2cc(/C=C/c3ccccc3Br)cc[n+]2C)c1.[I-] [Compound J3] | 620 nm | 450 nm | MITO | – | –
CN(C)c1ccc(C=Cc2cccc[n+]2C)cc1.[I-] [Compound C19] | 580 nm | 460 (broad) nm | MITO | – | –
C[n+]1ccc(C=Cc2ccc(OCc3ccccc3)c(OCc3ccccc3)c2)c2ccccc21.[I-] [Compound G12] | 590 nm | 420-460 nm | MITO and NUCLEOLI | – | –
Cc1ccnc(-c2cc(/C=C/c3ccc(N(C)C)cc3)cc[n+]2C)c1.[I-] [Compound J19] | 640 nm | 480 nm | MITO | – | –
COc1ccccc1C=Cc1ccc2ccccc2[n+]1C.[I-] [Compound H9] | 650 nm | – | MITO | – | –
C[n+]1c(/C=C/c2c(F)c(F)c(F)c(F)c2F)ccc2ccccc21.[I-] [Compound H31] | 610 nm | 420 nm | MITO and NUCLEI | – | –
C[n+]1ccc(C=Cc2ccccc2[N+](=O)[O-])c2ccccc21.[I-] [Compound G20] | 670 nm | 490-540 nm | MITO | – | –
COc1ccc2c(ccc(C=Cc3cccc4ccccc34)[n+]2C)c1.[I-] [Compound I32] | 610 nm | 360-440 nm | MITO and NUCLEI and NUCLEOLI | – | –
C[n+]1c(C=Cc2ccccc2[N+](=O)[O-])ccc2ccccc21.[I-] [Compound H20] | 620 nm | – | NUCLEOLI | – | –
COc1ccccc1C=Cc1cc[n+](C)c2ccccc12.[I-] [Compound G9] | 630 nm | 430 nm | MITO | – | –
Cc1cccc(C=Cc2ccc3ccccc3c2)[n+]1C.[I-] [Compound L33] | 500 nm | 360-470 nm | MITO | – | –
Cc1ccnc(-c2cc(/C=C/Cc3ccccc3)cc[n+]2C)c1.[I-] [Compound J1] | 620 nm | 450 nm | MITO | – | –
COc1ccc(C=Cc2ccc3ccccc3[n+]2C)cc1O.[I-] [Compound H15] | 610-620 nm | 420 nm | MITO | – | –
COc1ccc2c(ccc(C=Cc3ccc(OC)c4ccccc34)[n+]2C)c1.[I-] [Compound I14] | 580-590 nm | 460 nm | VESICLE | – | –
CN(C)c1ccc(C=Cc2cc[n+](C)cc2)c2ccccc12.[I-] [Compound A27] | 640 nm | 450 nm | CYTO | – | –
C[n+]1c(C=Cc2c[nH]c3ccccc23)ccc2ccccc21.[I-] [Compound H24] | 560 nm | 400-500 nm | CYTO | – | –
COc1cc(OC)c(OC)cc1C=Cc1cc[n+](C23CC4CC(CC(C4)C2)C3)cc1.[Br-] [Compound B38] | 580 nm | 400-480 nm | NUCLEI and MITO | – | –
COc1ccc(C=Cc2cc[n+](C)c(-c3cc(C)ccn3)c2)cc1O.[I-] [Compound J15] | 530 nm | 340-440 nm | VESICLE | – | –
COc1ccc(/C=C/c2cc[n+](C)c(Br)c2)cc1.[I-] [Compound F10] | 520 nm | 460 nm | – | – | –
COc1ccccc1C=Cc1cc[n+](C23CC4CC(CC(C4)C2)C3)cc1.[Br-] [Compound B9] | 500 nm | 390 nm | – | – | –
CN(C)c1ccc(C=Cc2cc[n+](C34CC5CC(CC(C5)C3)C4)cc2)cc1.[Br-] [Compound B19] | 610 nm | 380-540 nm | – | – | –
COc1ccc2c(ccc(C=Cc3ccc(Br)cc3)[n+]2C)c1.[I-] [Compound I5] | 650 nm | 420 nm | – | – | –
Cc1cccc(C=Cc2ccc3c(c2)OCO3)[n+]1C.[I-] [Compound L39] | 510 nm | 390 nm | – | – | –
